The results in this text go back to ChEMBL document CHEMBL3822440, “Semi-synthesis and antiproliferative evaluation of PEGylated pentacyclic triterpenes” (Eur J Med Chem, 2016).

Activity calls are given as the source filed them. No cut-off for these calls is given here.

Assay [1] in a line: Induction of apoptosis in mouse B16F10 cells assessed as live cells at cytotoxic IC50 after 72 hrs by Annexin V-FITC/propidium iodide staining based flow cytometry (reference value: 97.55 +/- 0.5%). The format is functional, B16-F10. A general note: A flow cytometer gives signals particle by particle.
The nature of assay [2]: Induction of apoptosis in mouse B16F10 cells assessed as early apoptotic cells at cytotoxic IC50 after 72 hrs by Annexin V-FITC/propidium iodide staining based flow cytometry (reference value: 0.75 +/- 0.07%). Format: functional, B16-F10.
Assay [3] is described as follows: Induction of apoptosis in mouse B16F10 cells assessed as necrotic cells at cytotoxic IC50 after 72 hrs by Annexin V-FITC/propidium iodide staining based flow cytometry (reference value: 0.75 +/- 0.07%). The format is functional, B16-F10.
Assay [4] has as its system HT-29. Nature of the assay: Induction of apoptosis in human HT-29 cells assessed as early apoptotic cells at cytotoxic IC50 after 72 hrs by Annexin V-FITC/propidium iodide staining based flow cytometry (reference value: 1.65 +/- 0.07%). The format is functional.
In assay [5] the test system is HT-29. As to the kind of experiment: Induction of apoptosis in human HT-29 cells assessed as late apoptotic cells at cytotoxic IC50 after 72 hrs by Annexin V-FITC/propidium iodide staining based flow cytometry (reference value: 0.65 +/- 0.35%). The format is functional.
The subject of assay [6] is HT-29. As to the kind of experiment: Induction of apoptosis in human HT-29 cells assessed as necrotic cells at cytotoxic IC50 after 72 hrs by Annexin V-FITC/propidium iodide staining based flow cytometry (reference value: 1.05 +/- 0.35%). The format is functional.
For assay [7], the system named is HepG2. As to the kind of experiment: Induction of apoptosis in human HepG2 cells assessed as early apoptotic cells at cytotoxic IC50 after 72 hrs by Annexin V-FITC/propidium iodide staining based flow cytometry (reference value: 0.3 +/- 0.01%). The format is functional.
The test system of assay [8] is HepG2. Nature of the assay: Induction of apoptosis in human HepG2 cells assessed as necrotic cells at cytotoxic IC50 after 72 hrs by Annexin V-FITC/propidium iodide staining based flow cytometry (reference value: 0.1 +/- 0.01%). Format: functional.
Assay [9] deals with HT-29. As to the kind of experiment: Cell cycle arrest in human HT-29 cells assessed as accumulation at G2/M phase at cytotoxic IC50 after 72 hrs by propidium iodide staining based flow cytometry (reference value: 6.23 +/- 1.7%). The format is functional.
Assay [10] in a line: Disruption of mitochondrial membrane potential in mouse B16F10 cells assessed as rhodamine123 positive cells at cytotoxic IC50 after 72 hrs by propidium iodide staining based fluorescence spectroscopic analysis (reference value: 95.6 +/- 0.57%). The format is functional, B16-F10.
Assay [11] deals with HT-29. Nature of the assay: Disruption of mitochondrial membrane potential in human HT-29 cells assessed as rhodamine123 positive cells at cytotoxic IC50 after 72 hrs by propidium iodide staining based fluorescence spectroscopic analysis (reference value: 94.25 +/- 0.35%). Format: functional.
The test system of assay [12] is HT-29. Nature of the assay: Induction of apoptosis in human HT-29 cells assessed as nucleus containing nicked DNA at cytotoxic IC50 after 72 hrs by Hoechst staining based fluorescence microscopic analysis. Format: functional, cell-based.
Assay [13] deals with HT-29. As to the kind of experiment: Induction of apoptosis in human HT-29 cells assessed as spherical cell shape at cytotoxic IC50 after 72 hrs by Hoechst staining based fluorescence microscopic analysis. The format is functional.
Assay [14] deals with HT-29. Nature of the assay: Induction of apoptosis in human HT-29 cells assessed as chromatin condensation at cytotoxic IC50 after 72 hrs by Hoechst staining based fluorescence microscopic analysis. The format is functional, cell-based.
Assay [15] relates to HT-29. Nature of the assay: Induction of apoptosis in human HT-29 cells assessed as disruption of cell membrane integrity at cytotoxic IC50 after 72 hrs by Hoechst staining based fluorescence microscopic analysis. The format is functional.
Assay [16] relates to HepG2. Nature of the assay: Induction of apoptosis in human HepG2 cells assessed as nucleus containing nicked DNA at cytotoxic IC50 after 72 hrs by Hoechst staining based fluorescence microscopic analysis. Format: functional, cell-based.
The subject of assay [17] is HepG2. As to the kind of experiment: Induction of apoptosis in human HepG2 cells assessed as bubble shaped region in cell surface at cytotoxic IC50 after 72 hrs by Hoechst staining based fluorescence microscopic analysis. Format: functional.
The subject of assay [18] is HepG2. Nature of the assay: Induction of apoptosis in human HepG2 cells assessed as disruption of cell membrane integrity at cytotoxic IC50 after 72 hrs by Hoechst staining based fluorescence microscopic analysis. The format is functional.

Regarding `COCCOCCOCC(=O)O[C@@H]1C[C@]2(C)[C@H]3CC=C4[C@@H]5CC(C)(C)CC[C@]5(C(=O)O)CC[C@@]4(C)[C@]3(C)CC[C@H]2C(C)(C)[C@H]1OC(=O)COCCOCCOC`, the Activity in [1] is 11.1%; in [2] it was 32.8%; in [3] it was 0%; in [4], 40.1%; in [5] it was 0.15%; in [6], 0%. Further, the Activity stood at 14.75% in assay [7]; 0.4% in assay [8]; 0.76% in assay [9]; 75.05% in [10]; 94.3% in [11]. Moreover, the outcome in [12], in [13], in assay [14], in assay [15], in assay [16] and in assay [17] was Active. Also, in [18], the result was Active.
For the compound `CC1(C)CC[C@]2(C(=O)NCCCOCCOCCOCCCN)CC[C@]3(C)C(=CC[C@@H]4[C@@]5(C)C[C@@H](O)[C@H](O)C(C)(C)[C@@H]5CC[C@]43C)[C@@H]2C1`, the Activity is 0.9% in assay [1]; 60.25% in assay [2]; 0.2% in assay [3]; 31.25% in assay [4]; 7.6% in assay [5]; 0.2% in assay [6]. Moreover, the Activity in assay [7] was determined as 46.75%; in [8] it was 0.4%; in assay [9], 13.1%; in [10] it was 48.05%; in assay [11], 63.1%. Also, the result in [12], in assay [13], in assay [14], in assay [15], in assay [16] and in assay [17] was Active. In addition, in [18], the outcome was Active.
